# Data published in patent publication US11612586B2, “Indole regulation of antigen presenting cells” (THE TEXAS A&M UNIVERSITY SYSTEM, priority 2016, dated 2023).
# Columns and labels:
# Th2 cells = test: Th2 differentiation in DC-T cell co-culture; type: cell-based, mouse; conditions: co-culture with DCs conditioned with indole
# Method: FIGS. 19A-19C graphically illustrate that indole-conditioned DCs inhibit Th1, Th2, and Th17 differentiation. Naïve CD4+CD25-T cells from OT-II TCR transgenic mice were isolated by column purification. Naïve T cells were then co-cultured with OVA323-339 peptide-loaded BMDCs for 72 hours in the presence or absence of lineage-skewing cytokines (described in methods). BMDCs were previously treated with indole, RA, or DMF from day 3. For the last 5 hours of culture, T cells were restimulated with PMA and ionomycin in the presence of Golgiplug, followed by intracellular staining. Cytokine production was determined to assess differentiation of Th1 (FIG. 19A), Th2 (FIG. 19B), and Th17 CD4+T (FIG. 19C) cells. Mean of three independent experiments. * indicates p<0.05 for one-way ANOVA followed by Dunnett's post-test.
# In order to determine whether the indole-conditioned DC induction of Tregs was specific to this lineage, additional T cell fates were quieried. Activated CD4+T helper cells are typically divided into the subsets Th1, Th2, Th17, and Treg, based on their expression of transcription factors and pattern of cytokine secretion. The antigen-specific co-culture system was used to investigate these remaining traditional T cell lineages with the addition of an endpoint PMA/Ionomycin stimulation to induce cytokine secretion. […]
# TNF = TNF production in splenic macrophages ex vivo; type: cell-based, mouse; conditions: indole overnight
# Method: Similarly, the ex vivo indole conditioning of splenocytes was repeated with tissues from AhR-deficient and wild-type mice and analyzed TNF production. […] Importantly, in this set of experiments splenocytes were stimulated with LPS, heat-killed S. typhimurium, and CpG. […] Specifically, BMDMs were generated from WT or AhR-KO mice and treated with indole (1 mM) or DMF control for 18 hours. BMDMs were then stimulated with IL-6 (10 ng/ml) for the given times and stained for phospho-Stat3, which was detected by flow cytometry.
# DCs = test: DC viability: lactate dehydrogenase release and propidium iodide uptake; conditions: versus solvent controls
# [1] = Pinero-Fernandez et al. 2011; cited from earlier work
# CCR7 = CCR7 surface expression on BMDCs; type: cell-based, mouse
# Method: FIG. 14 graphically illustrates that indole upregulates CCR7 expression in DCs. Flow cytometric analysis were performed on BMDCs cultured from day 3 in the presence of indole (1 mM), RA (1 uM), or DMF control and either surface stained for CCR7 expression directly or treated with LPS (1 ug/ml) for 24 hours prior to CCR7 staining.
# Encountering maturation-inducing stimuli induces an upregulation of the chemokine receptor CCR7 in DCs. This shift promotes DC migration from peripheral tissues to the lymph nodes to present captured antigen. CCR7 expression facilitates this migration by rendering DCs sensitive to the chemoattractants, CCL19 and CCL21, which direct DCs to T cell areas of lymphoid tissues. […] Exposure to LPS is a DC-activating signal known to upregulate CCR7 expression in order to prime DCs for lymph node entry. Consistent with the literature, exposure to LPS for 24 hours further induced CCR7 expression in our BMDC cultures overall. Here, indole-conditioned DCs once again expressed a higher level of CCR7 expression compared to controls by over 3-fold in magnitude (FIG. 14).
# IL-12 = IL-12 production in BMDCs, intracellular staining, flow cytometry; type: cell-based, mouse
# Method: Intracellular staining was performed to assess TNF (FIG. 3A) and IL-12 (FIG. 3B) production.
# Briefly, bone marrow was harvested from femurs of mice and cultured for 7 days in the presence of DC-skewing cytokines, GM-CSF and IL-4. […] The pro-inflammatory cytokines, IL-6 and IL-12, were specifically queried. […] Immune cells communicate largely through the production of soluble factors including cytokines, and DCs detect these signals and determine their effector functions accordingly.
# The inventors performed a series of assays where bone marrow derived macrophages (BMDMs), bone marrow derived dendritic cells (BMDCs), and splenic dendritic cells (splenic DCs), were exposed to a series of TDMMs, including indole, indole-3-acetate (I3AT), 5-hydroxyindole (5HI), and indole-3-pyruvate (I3P), as well as indole-3-carbinol (I3C; a plant derived compound) to be used for a positive control (1 mM for 24 hours). The BMDMs and BMDCs were stimulated with LPS for 4 hours and assayed at day 7 for expression of various pro-inflammatory cytokines. In a similar assay, the BMDMs and BMDCs were stimulated with LPS or CpG, respectively, for 15 minutes and assayed for pAKT and pERK signaling, which is a reflection of pro-inflammatory response.
smiles,measurement,setting,value
"c1ccc2[nH]ccc2c1 [Indole, indole]",development of Th2 lineage,Th2 cells,stark inhibition
same,inhibition of TNF production,"TNF; splenic macrophages from WT or AhR-KO mice, LPS, HK-STM or CpG 6 hours",marked inhibition
same,inhibition of TNF production compared to solvent controls,"TNF; splenic macrophages, LPS or heat-killed S. typhimurium",75%
same,cytotoxicity in DCs,DCs,did not induce cytotoxicity
same,diffusion across membranes,[1],freely diffusible across membranes
same,CCR7 expression compared to controls,"CCR7; BMDCs, indole 1 mM from day 3, LPS for 24 hours",over 3 fold
same,increase in CCR7 expression over RA or solvent controls,"CCR7; day 7 freshly harvested BMDCs, indole 1 mM from day 3",approximately 5 fold
same,reduction in IL-12,"IL-12; BMDCs exposed to indole from day 3 of 7 day culture, LPS stimulation",40%
same,IL-12,"IL-12; BMDCs, 1 mM TDMM 24 hours, LPS (1 ug/ml) 4 hours",↓↓
same,inhibition of IL-12 production,"IL-12; BMDCs, indole 24 hours (overnight), LPS 1 ug/ml 4 hours",≥ 2 fold
